Data published in US20250109135A1, “NOVEL ISOINDOLINONE DERIVATIVE COMPOUNDS AS CASPASE INHIBITORS” (INNOVO THERAPEUTICS INC., priority 2022, published 2025).
Where two headings read alike, the source gives them in different places.

Tests used:
[1] = molecular target: T1, recombinant human Caspase-1 (Homo sapiens, UniProt P29466); experiment: Caspase-1 inhibitory activity, fluorescent substrate Ac-YVAD-AFC; assay type: biochemical
T1 construct: purchased Enzo life science
T1 sequence (P29466 120-297 limits assumed): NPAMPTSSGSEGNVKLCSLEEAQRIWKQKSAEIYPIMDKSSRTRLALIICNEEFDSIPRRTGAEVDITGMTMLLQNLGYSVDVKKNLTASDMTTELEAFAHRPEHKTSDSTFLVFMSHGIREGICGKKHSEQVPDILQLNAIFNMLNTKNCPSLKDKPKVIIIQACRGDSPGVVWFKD
T1 sequence (P29466 317-404 limits assumed): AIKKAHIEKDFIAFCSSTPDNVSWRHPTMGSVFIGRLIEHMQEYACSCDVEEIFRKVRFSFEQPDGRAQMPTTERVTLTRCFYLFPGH
Protocol: To determine the Caspase-1 inhibitory activity of the compounds of the present invention prepared in Example, Caspase-1 activity was measured using a substrate with a fluorescent dye attached to it. […] The compound was dissolved in DMSO and stored at −20° C. Enzymatic reactions were carried out in a buffer comprising 50 mM HEPES (pH 8.0), 50 mM KCl, 200 mM NaCl, 10 mM DTT, 0.1% CHAPS (w/v). Enzyme inactivation was measured in the presence of different concentrations of the compound using the fluorescent substrate N-Acetyl-Tyr-Val-Ala-Asp-7-amido-4-trifluoromethylcoumarin (Ac-YVAD-AFC) (Sigma) at a concentration of 50 μM and 1 unit of recombinant human Caspase-1 (Enzo life science). A CLARIOstar Plus spectrometer (BMG Labtech) was used to measure the reaction rate as a function of time in the 400/505 nm (Ex/Em) wavelength band. […] If kobs/[I] is 20 or more, it is denoted as A, if it is 10 or more but less than 20, it is denoted as B, if it is 1 or more but less than 10, it is denoted as C, and if it is less than 1, it is denoted as D.
In the above equation, At means the enzyme reaction rate at time t (min), and Amax means the maximum reaction rate.

[2] = tested on: Secreted IL-1β in THP-1 cells; experiment: Interleukin-1β inhibitory activity in human monocytic cells THP-1 (ELISA); assay type: cell-based; conditions: compound 100 nM, PMA-differentiated THP-1, LPS 10 μg/ml then 5 mM ATP, 24 h
Protocol: Caspase-1 is known as […] (ICE). Activated Caspase-1 is involved in the cleavage of pro-form IL-1β to produce the mature form, which is then secreted to induce inflammation. Therefore, the compounds identified in Experimental example 1 were tested to determine if their Caspase-1 inhibitory activity affected the production of […].
THP-1 (ATCC) cells were cultured in RPMI 1640 (Hyclone) growth medium comprising 10% Fetal bovine serum (FBS, Gibco) and antibiotics (100 U/ml Penicillin, 0.1 mg/ml Streptomycin, Cytiva) under 37° C., 5% CO2 conditions. Cultured THP-1 cells were seeded in growth medium to a concentration of 3×10^5 cells/well in 24-well plates (Celvest) and then treated with 1 μM Phorbol 12-myristate 13-acetate (PMA) (Sigma) for 24 hours to induce differentiation. Differentiated THP-1 were pre treated with 10 μg/ml Lipopolysaccharide (LPS, from E. coli 0111:B4 (InvivoGen)) in serum free RPMI 1640 medium for 24 hours to induce an inflammatory response. After removal of LPS, the compounds were pretreated for 1 h at a concentration of 100 nM using the same medium, followed by the addition of 5 mM ATP (InvivoGen) and incubation for 24 h in an incubator. The treated medium was collected and centrifuged, and IL-1β was quantified using an Enzyme linked immunoassay kit (ELISA kit, R&D system), and absorbance was measured at 450 nm using a CLARIOstar Plus spectrometer. Inhibitory activity was denoted as a if it was 50% or more, b if it was 30% or more but less than 50%, c if it was 10% or more but less than 30%, and d if it was less than 10%.

[3] = pH 8, 1 unit recombinant human Caspase-1, 50 μM Ac-YVAD-AFC, read-out: kobs/[I] Caspase-1
[4] = pH 8, read-out: kobs/[I] Caspase-1

Row | SMILES | kinact/KI [1, 3] [M⁻¹ s⁻¹] | inhibition at 0.1 µM [2] [%] | kinact/KI [1, 4] [M⁻¹ s⁻¹]
1 | CCC(C(=O)NC(CC(=O)O)C(=O)CF)N1Cc2ccc(-c3cnn4ccccc34)cc2C1=O (stereo not drawn) [Compound 33, 5-fluoro-4-oxo-3-(2-(1-oxo-6-(pyrazolo[1,5-a]pyridin-3-yl)isoindolin-2-yl)butanamido)pentanoic acid] | 0.0167 to 0.167 | < 10 | –
2 | CCC(C(=O)NC(CC(=O)O)C(=O)CF)N1Cc2ccc(-c3ccnc(N)c3)cc2C1=O (stereo not drawn) [Compound 23, 3-(2-(6-(2-aminopyridin-4-yl)-1-oxoisoindolin-2-yl)butanamido)-5-fluoro-4-oxopentanoic acid] | 0.0167 to 0.167 | < 10 | –
3 | CC[C@@H](C(=O)N[C@@H](CC(=O)O)C(=O)COc1c(F)c(F)cc(F)c1F)N1Cc2ccc(N3CCCC3)cc2C1=O [Compound 53, (S)-4-oxo-3-((S)-2-(1-oxo-6-(pyrrolidin-1-yl)isoindolin-2-yl)butanamido)-5-(2,3,5,6-tetrafluorophenoxy)pentanoic acid] | – | < 10 | 0.0167 to 0.167
4 | CCC(C(=O)NC(CC(=O)O)C(=O)CF)N1Cc2ccc(N3CCN(c4nsc5ccccc45)CC3)cc2C1=O (stereo not drawn) [Compound 19, 3-(2-(6-(4-(benzo[d]isothiazol-3-yl)piperazin-1-yl)-1-oxoisoindolin-2-yl)butanamido)-5-fluoro-4-oxopentanoic acid] | < 0.0167 | < 10 | –
5 | CCC(C(=O)NC(CC(=O)O)C(=O)CF)N1Cc2ccc(-c3cnc(N)nc3)cc2C1=O (stereo not drawn) [Compound 21] | 0.0167 to 0.167 | 30 to 50 | –
6 | CCC(C(=O)NC(CC(=O)O)C(=O)CF)N1Cc2ccc(-c3cccc4cnccc34)cc2C1=O (stereo not drawn) [Compound 36, 5-fluoro-3-(2-(6-(isoquinolin-5-yl)-1-oxoisoindolin-2-yl)butanamido)-4-oxopentanoic acid] | – | < 10 | 0.0167 to 0.167
7 | CCC(C(=O)NC(CC(=O)O)C(=O)CF)N1Cc2ccc(-c3ccc(C(F)(F)F)cc3)cc2C1=O (stereo not drawn) [Compound 14, 5-fluoro-4-oxo-3-(2-(1-oxo-6-(4-(trifluoromethyl)phenyl)isoindolin-2-yl)butanamido)pentanoic acid] | 0.0167 to 0.167 | < 10 | –
8 | CCC(C(=O)NC(CC(=O)O)C(=O)CF)N1Cc2ccc(C3=CCN(S(C)(=O)=O)CC3)cc2C1=O (stereo not drawn) [Compound 7, 5-fluoro-3-(2-(6-(1-(methylsulfonyl)-1,2,3,6-tetrahydropyridin-4-yl)-1-oxoisoindolin-2-yl)butanamido)-4-oxopentanoic acid] | 0.0167 to 0.167 | < 10 | –
9 | C[C@@H](C(=O)NC(CC(=O)O)C(=O)CF)N1Cc2ccc(-c3ccc4c(c3)OCCO4)cc2C1=O (stereo partly drawn) [Compound 48, 3-(2-(6-(2,3-dihydrobenzo[b][1,4]dioxin-6-yl)-1-oxoisoindolin-2-yl)propanamido)-5-fluoro-4-oxopentanoic acid] | < 0.0167 | – | –
10 | CCC(C(=O)NC(CC(=O)O)C(=O)CF)N1Cc2ccc(-c3ccnc4ccccc34)cc2C1=O (stereo not drawn) [Compound 31, 5-fluoro-4-oxo-3-(2-(1-oxo-6-(quinolin-4-yl)isoindolin-2-yl)butanamido)pentanoic acid] | 0.0167 to 0.167 | < 10 | –
11 | CC[C@@H](C(=O)NC(CC(=O)O)C(=O)CF)N1Cc2cc(N3CCn4cc(C(F)(F)F)nc4C3)ccc2C1=O (stereo partly drawn) [Compound 62, 5-fluoro-4-oxo-3-((S)-2-(1-oxo-5-(2-(trifluoromethyl)-5,6-dihydroimidazo[1,2-a]pyrazin-7(8H)-yl)isoindolin-2-yl)butanamido)pentanoic acid] | – | – | < 0.0167
12 | CCC(C(=O)NC(CC(=O)O)C(=O)CF)N1Cc2ccc(-c3ccc(C(=O)O)cc3)cc2C1=O (stereo not drawn) [Compound 17, 4-(2-(1-((1-carboxy-4-fluoro-3-oxobutan-2-yl)amino)-1-oxobutan-2-yl)-3-oxoisoindolin-5-yl)benzoic acid] | 0.0167 to 0.167 | 10 to 30 | –
13 | C[C@@H](C(=O)NC(CC(=O)O)C(=O)CF)N1Cc2ccc(-c3coc4ccccc34)cc2C1=O (stereo partly drawn) [Compound 49, 3-(2-(6-(benzofuran-3-yl)-1-oxoisoindolin-2-yl)propanamido)-5-fluoro-4-oxopentanoic acid] | 0.167 to 0.333 | – | –
14 | CCC(C(=O)NC(CC(=O)O)C(=O)CF)N1Cc2ccc(-c3cccc4ncccc34)cc2C1=O (stereo not drawn) [Compound 34, 5-fluoro-4-oxo-3-(2-(1-oxo-6-(quinolin-5-yl)isoindolin-2-yl)butanamido)pentanoic acid] | 0.0167 to 0.167 | < 10 | –
15 | CCC(C(=O)NC(CC(=O)O)C(=O)CF)N1Cc2ccc(-c3ccsc3)cc2C1=O (stereo not drawn) [Compound 28, 5-fluoro-4-oxo-3-(2-(1-oxo-6-(thiophen-3-yl)isoindolin-2-yl)butanamido)pentanoic acid] | 0.0167 to 0.167 | 10 to 30 | –
16 | C[C@@H](C(=O)NC(CC(=O)O)C(=O)CF)N1Cc2ccc(N3CCCC3)cc2C1=O (stereo partly drawn) [Compound 46, 5-fluoro-4-oxo-3-(2-(1-oxo-6-(pyrrolidin-1-yl)isoindolin-2-yl)propanamido)pentanoic acid] | – | – | < 0.0167
17 | CCC(C(=O)NC(CC(=O)O)C(=O)CF)N1Cc2ccc(-c3ccn(C)n3)cc2C1=O (stereo not drawn) [Compound 25, 5-fluoro-3-(2-(6-(1-methyl-1H-pyrazol-3-yl)-1-oxoisoindolin-2-yl)butanamido)-4-oxopentanoic acid] | 0.0167 to 0.167 | 10 to 30 | –
18 | CC[C@@H](C(=O)NC(CC(=O)O)C(=O)CF)N1Cc2cc(-c3csc4ccccc34)ccc2C1=O (stereo partly drawn) [Compound 59, 3-((S)-2-(5-(benzo[b]thiophen-3-yl)-1-oxoisoindolin-2-yl)butanamido)-5-fluoro-4-oxopentanoic acid] | – | < 10 | < 0.0167
19 | CCC(C(=O)NC(CC(=O)O)C(=O)CF)N1Cc2ccc(C3=CCOCC3)cc2C1=O (stereo not drawn) [Compound 15, 3-(2-(6-(3,6-dihydro-2H-pyran-4-yl)-1-oxoisoindolin-2-yl)butanamido)-5-fluoro-4-oxopentanoic acid] | < 0.0167 | < 10 | –
20 | CCC(C(=O)NC(CC(=O)O)C(=O)CF)N1Cc2ccc(Nc3cccc4ccccc34)cc2C1=O (stereo not drawn) [Compound 11, 5-fluoro-3-(2-(6-(naphthalen-1-ylamino)-1-oxoisoindolin-2-yl)butanamido)-4-oxopentanoic acid] | < 0.0167 | 30 to 50 | –
21 | CC[C@@H](C(=O)NC(CC(=O)O)C(=O)CF)N1Cc2cc(N3CCN(c4nsc5ccccc45)CC3)ccc2C1=O (stereo partly drawn) [Compound 63, 3-((S)-2-(5-(4-(benzo[d]isothiazol-3-yl)piperazin-1-yl)-1-oxoisoindolin-2-yl)butanamido)-5-fluoro-4-oxopentanoic acid] | – | – | < 0.0167
22 | C[C@@H](C(=O)NC(CC(=O)O)C(=O)CF)N1Cc2ccc(-c3ccc4[nH]c(=O)[nH]c4c3)cc2C1=O (stereo partly drawn) [Compound 47, 5-fluoro-4-oxo-3-(2-(1-oxo-6-(2-oxo-2,3-dihydro-1H-benzo[d]imidazol-5-yl)isoindolin-2-yl)propanamido)pentanoic acid] | – | – | 0.0167 to 0.167
23 | CC[C@@H](C(=O)NC(CC(=O)O)C(=O)CF)N1Cc2cc(N3CCCC3)ccc2C1=O (stereo partly drawn) [Compound 64, 5-fluoro-4-oxo-3-((S)-2-(1-oxo-5-(pyrrolidin-1-yl)isoindolin-2-yl)butanamido)pentanoic acid] | – | – | < 0.0167
